Data from patent publication US20230085307A1, “PYRIDAZINONE COMPOUND AND HERBICIDE” (NISSAN CHEMICAL CORPORATION, priority 2019, published 2023).

tested on: blackgrass; assay: Test Example 5: herbicidal effect by foliage application, plastic box (Table 20, symbol J); format: in vivo, blackgrass (Alopecurus myosuroides); settings: foliage application, 320 g/ha, evaluated three weeks after application
How it was run: (§1)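 Sow seeds spot-wise in sterilized diluvial soil; cover with ~1.5 cm soil. Grow 14 days in greenhouse, 25° C. to 30° C. Spray foliage with emulsion diluted to predetermined amount. Rate effect after 3 weeks.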

Structure (SMILES)	herbicidal effect on J: blackgrass
Cc1nn(C)c(=O)c(-c2c(-c3ccc(C(F)(F)F)cc3)sc3ccc(Cl)cc23)c1O [2-111]	5 (Herbicidal rate of 90% or more (almost completely withered))
CCCC(=O)Oc1c(C)nn(C)c(=O)c1-c1c(-c2ccccc2OC)sc2ccc(C)cc12 [2-139]	2 (Herbicidal rate of 20% or more and less than 40%)

tested on: late watergrass; assay: Test Example 2: herbicidal activity, application during weed generation under submerged conditions (Table 17, symbol A); format: in vivo, late watergrass (Echinochloa oryzicola); settings: AAH 320 g/ha; application during weed generation, submerged conditions
How it was run: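 Wagner pot, alluvial soil, 4 cm flood; mixed sowing of all species; greenhouse 25° C.–30° C. Emulsifiable formulation, water-diluted to predetermined dose, applied to paddy water at 1–2 leaf stage. Effect rated at 3 wk using the earlier test's scoring criteria.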

Structure (SMILES)	herbicidal effect rating, A: late watergrass
Cc1nn(C)c(=O)c(-c2c(-c3ccc(C(F)(F)F)cc3)sc3ccc(Cl)cc23)c1O [2-111]	2 (Herbicidal rate of 20% or more and less than 40%)
CCCC(=O)Oc1c(C)nn(C)c(=O)c1-c1c(-c2ccccc2OC)sc2ccc(C)cc12 [2-139]	3 (Herbicidal rate of 40% or more and less than 70%)

tested on: lambsquarters; assay: Test Example 5: herbicidal effect by foliage application, plastic box (Table 20, symbol O); format: in vivo, lambsquarters (Chenopodium album); settings: foliage application, 320 g/ha, evaluated three weeks after application
How it was run: as §1

Structure (SMILES)	herbicidal effect on O: lambsquarters
Cc1nn(C)c(=O)c(-c2c(-c3ccc(C(F)(F)F)cc3)sc3ccc(Cl)cc23)c1O [2-111]	3 (Herbicidal rate of 40% or more and less than 70%)
CCCC(=O)Oc1c(C)nn(C)c(=O)c1-c1c(-c2ccccc2OC)sc2ccc(C)cc12 [2-139]	3 (Herbicidal rate of 40% or more and less than 70%)

tested on: blackgrass; assay: Test Example 4: herbicidal effect by soil treatment (Table 19, symbol J); format: in vivo, blackgrass (Alopecurus myosuroides); settings: amount of applied herbicide 320 g/ha
How it was run: (§2)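 Applied as a water-diluted emulsion, the compound was sprayed onto soil covering newly sown seeds. Evaluation came three weeks after application, in a greenhouse held at 25° C. to 30° C.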

Structure (SMILES)	J: blackgrass, herbicidal effect rating
Cc1nn(C)c(=O)c(-c2c(-c3ccc(C(F)(F)F)cc3)sc3ccc(Cl)cc23)c1O [2-111]	5 (Herbicidal rate of 90% or more (almost completely withered))
CCCC(=O)Oc1c(C)nn(C)c(=O)c1-c1c(-c2ccccc2OC)sc2ccc(C)cc12 [2-139]	1 (Herbicidal rate of 5% or more and less than 20%)

tested on: barnyard grass; assay: Test Example 3: herbicidal effect by foliage application, Wagner pot (Table 18, symbol H); format: in vivo, barnyard grass (Echinochloa crus-galli); settings: amount of applied herbicide 320 g/ha
How it was run: (§3)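 Plants were sown in alluvial soil held under 0.1–0.5 cm standing water and grown 14 days in a greenhouse at 25–30 °C. An emulsifiable formulation, water-diluted to the set dose, was then sprayed onto the foliage, and effects were scored three weeks later using previously defined criteria.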

Structure (SMILES)	herbicidal effect on H: barnyard grass
Cc1nn(C)c(=O)c(-c2c(-c3ccc(C(F)(F)F)cc3)sc3ccc(Cl)cc23)c1O [2-111]	4 (Herbicidal rate of 70% or more and less than 90%)
CCCC(=O)Oc1c(C)nn(C)c(=O)c1-c1c(-c2ccccc2OC)sc2ccc(C)cc12 [2-139]	4 (Herbicidal rate of 70% or more and less than 90%)

tested on: Italian ryegrass; assay: Test Example 5: herbicidal effect by foliage application, plastic box (Table 20, symbol K); format: in vivo, Italian ryegrass (Lolium multiflorum); settings: foliage application, 320 g/ha, evaluated three weeks after application
How it was run: as §1

Structure (SMILES)	herbicidal effect on K: Italian ryegrass
Cc1nn(C)c(=O)c(-c2c(-c3ccc(C(F)(F)F)cc3)sc3ccc(Cl)cc23)c1O [2-111]	3 (Herbicidal rate of 40% or more and less than 70%)
CCCC(=O)Oc1c(C)nn(C)c(=O)c1-c1c(-c2ccccc2OC)sc2ccc(C)cc12 [2-139]	1 (Herbicidal rate of 5% or more and less than 20%)

tested on: redroot pigweed; assay: Test Example 5: herbicidal effect by foliage application, plastic box (Table 20, symbol N); format: in vivo, redroot pigweed (Amaranthus retroflexus); settings: foliage application, 320 g/ha, evaluated three weeks after application
How it was run: as §1

Structure (SMILES)	herbicidal effect on N: redroot pigweed
Cc1nn(C)c(=O)c(-c2c(-c3ccc(C(F)(F)F)cc3)sc3ccc(Cl)cc23)c1O [2-111]	5 (Herbicidal rate of 90% or more (almost completely withered))
CCCC(=O)Oc1c(C)nn(C)c(=O)c1-c1c(-c2ccccc2OC)sc2ccc(C)cc12 [2-139]	4 (Herbicidal rate of 70% or more and less than 90%)

tested on: windgrass; assay: Test Example 4: herbicidal effect by soil treatment (Table 19, symbol L); format: in vivo, windgrass (Apera spica-venti); settings: amount of applied herbicide 320 g/ha
How it was run: as §2

Structure (SMILES)	L: windgrass, herbicidal effect rating
Cc1nn(C)c(=O)c(-c2c(-c3ccc(C(F)(F)F)cc3)sc3ccc(Cl)cc23)c1O [2-111]	5 (Herbicidal rate of 90% or more (almost completely withered))
CCCC(=O)Oc1c(C)nn(C)c(=O)c1-c1c(-c2ccccc2OC)sc2ccc(C)cc12 [2-139]	0 (Herbicidal rate of 5% or less (almost no effect))

tested on: late watergrass; assay: Test Example 1: herbicidal activity, application before weed generation under submerged conditions (Table 16, symbol A); format: in vivo, late watergrass (Echinochloa oryzicola); settings: 320 g/ha applied herbicide
How it was run: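 Submerged Wagner pots (alluvial soil, 4 cm water) sown with weed seeds and planted with 2.5-leaf rice seedlings; emulsifiable concentrate diluted in water applied to water surface on sowing day. Held in greenhouse at 25-30 °C; injury scored 0-5 by herbicidal rate after three weeks.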

Structure (SMILES)	Herbicidal effect on A: late watergrass (grade 0-5)
Cc1nn(C)c(=O)c(-c2c(-c3ccc(C(F)(F)F)cc3)sc3ccc(Cl)cc23)c1O [2-111]	3 (Herbicidal rate of 40% or more and less than 70%)
CCCC(=O)Oc1c(C)nn(C)c(=O)c1-c1c(-c2ccccc2OC)sc2ccc(C)cc12 [2-139]	4 (Herbicidal rate of 70% or more and less than 90%)

tested on: Italian ryegrass; assay: Test Example 4: herbicidal effect by soil treatment (Table 19, symbol K); format: in vivo, Italian ryegrass (Lolium multiflorum); settings: amount of applied herbicide 320 g/ha
How it was run: as §2

Structure (SMILES)	K: Italian ryegrass, herbicidal effect rating
Cc1nn(C)c(=O)c(-c2c(-c3ccc(C(F)(F)F)cc3)sc3ccc(Cl)cc23)c1O [2-111]	3 (Herbicidal rate of 40% or more and less than 70%)
CCCC(=O)Oc1c(C)nn(C)c(=O)c1-c1c(-c2ccccc2OC)sc2ccc(C)cc12 [2-139]	1 (Herbicidal rate of 5% or more and less than 20%)

tested on: velvetleaf; assay: Test Example 4: herbicidal effect by soil treatment (Table 19, symbol M); format: in vivo, velvetleaf (Abutilon theophrasti); settings: amount of applied herbicide 320 g/ha
How it was run: as §2

Structure (SMILES)	M: velvetleaf, herbicidal effect rating
Cc1nn(C)c(=O)c(-c2c(-c3ccc(C(F)(F)F)cc3)sc3ccc(Cl)cc23)c1O [2-111]	0 (Herbicidal rate of 5% or less (almost no effect))
CCCC(=O)Oc1c(C)nn(C)c(=O)c1-c1c(-c2ccccc2OC)sc2ccc(C)cc12 [2-139]	0 (Herbicidal rate of 5% or less (almost no effect))

tested on: lambsquarters; assay: Test Example 4: herbicidal effect by soil treatment (Table 19, symbol O); format: in vivo, lambsquarters (Chenopodium album); settings: amount of applied herbicide 320 g/ha
How it was run: as §2

Structure (SMILES)	O: lambsquarters, herbicidal effect rating
Cc1nn(C)c(=O)c(-c2c(-c3ccc(C(F)(F)F)cc3)sc3ccc(Cl)cc23)c1O [2-111]	4 (Herbicidal rate of 70% or more and less than 90%)
CCCC(=O)Oc1c(C)nn(C)c(=O)c1-c1c(-c2ccccc2OC)sc2ccc(C)cc12 [2-139]	0 (Herbicidal rate of 5% or less (almost no effect))

tested on: velvetleaf; assay: Test Example 5: herbicidal effect by foliage application, plastic box (Table 20, symbol M); format: in vivo, velvetleaf (Abutilon theophrasti); settings: foliage application, 320 g/ha, evaluated three weeks after application
How it was run: as §1

Structure (SMILES)	herbicidal effect on M: velvetleaf
Cc1nn(C)c(=O)c(-c2c(-c3ccc(C(F)(F)F)cc3)sc3ccc(Cl)cc23)c1O [2-111]	3 (Herbicidal rate of 40% or more and less than 70%)
CCCC(=O)Oc1c(C)nn(C)c(=O)c1-c1c(-c2ccccc2OC)sc2ccc(C)cc12 [2-139]	3 (Herbicidal rate of 40% or more and less than 70%)

tested on: Chinese sprangletop; assay: Test Example 3: herbicidal effect by foliage application, Wagner pot (Table 18, symbol D); format: in vivo, chinese sprangletop (Leptochloa chinensis); settings: amount of applied herbicide 320 g/ha
How it was run: as §3

Structure (SMILES)	herbicidal effect on D: Chinese sprangletop
Cc1nn(C)c(=O)c(-c2c(-c3ccc(C(F)(F)F)cc3)sc3ccc(Cl)cc23)c1O [2-111]	2 (Herbicidal rate of 20% or more and less than 40%)
CCCC(=O)Oc1c(C)nn(C)c(=O)c1-c1c(-c2ccccc2OC)sc2ccc(C)cc12 [2-139]	0 (Herbicidal rate of 5% or less (almost no effect))

tested on: southern crabgrass; assay: Test Example 4: herbicidal effect by soil treatment (Table 19, symbol F); format: in vivo, southern crabgrass (Digitaria ciliaris); settings: amount of applied herbicide 320 g/ha
How it was run: as §2

Structure (SMILES)	F: southern crabgrass, herbicidal effect rating
Cc1nn(C)c(=O)c(-c2c(-c3ccc(C(F)(F)F)cc3)sc3ccc(Cl)cc23)c1O [2-111]	0 (Herbicidal rate of 5% or less (almost no effect))
CCCC(=O)Oc1c(C)nn(C)c(=O)c1-c1c(-c2ccccc2OC)sc2ccc(C)cc12 [2-139]	0 (Herbicidal rate of 5% or less (almost no effect))

tested on: persian speedwell; assay: Test Example 4: herbicidal effect by soil treatment (Table 19, symbol R); format: in vivo, Persian speedwell (Veronica persica); settings: amount of applied herbicide 320 g/ha
How it was run: as §2

Structure (SMILES)	R: persian speedwell, herbicidal effect rating
Cc1nn(C)c(=O)c(-c2c(-c3ccc(C(F)(F)F)cc3)sc3ccc(Cl)cc23)c1O [2-111]	5 (Herbicidal rate of 90% or more (almost completely withered))
CCCC(=O)Oc1c(C)nn(C)c(=O)c1-c1c(-c2ccccc2OC)sc2ccc(C)cc12 [2-139]	4 (Herbicidal rate of 70% or more and less than 90%)
